Measured values taken from PMC9603750, “Chalcone-Acridine Hybrid Suppresses Melanoma Cell Progression via G2/M Cell Cycle Arrest, DNA Damage, Apoptosis, and Modulation of MAP Kinases Activity” (International Journal of Molecular Sciences, 2022).

What was measured:
Assay type in all cases: cell-based, human
BLM = assay: BrdU cell proliferation assay
Description: (§1) The BrdU Cell Proliferation Assay is based on the detection of BrdU (5-bromo-2′-deoxyuridine) incorporated into the newly synthesized DNA during the replication process in proliferating cells.
(§2) The A2058 (5 × 10^3/well) and BLM (5 × 10^3/well) melanoma cells were plated in a 96-well culture plate in 80 μL suitable medium. Twenty-four hours after cell seeding, different concentrations of the chalcone 1C were added ranging from 5–20 μmol/L. After 48 h of treatment, BrdU labelling solution was added to melanoma cells and incubated for another 24 h at 37 °C followed by fixation and incubation with anti-BrdU peroxidase conjugate solution for an additional 90 min in the dark at room temperature. Cells were then washed 3× with washing solution and incubated with TMB (tetramethylbenzidine) substrate solution (all Roche, Basel, Switzerland) for 5 to 30 min according to colour intensity. Finally, the stop solution (25 μL 1 M H2SO4) was added, and the incorporated BrdU was detected with an automated Cytation™ 3 Cell Imaging Multi-Mode Reader (Biotek, Winooski, VT, USA) at 450 nm. Three independent analyses were performed.

A2058 = assay: BrdU cell proliferation assay
Description: as §1, §2

BLM melanoma cells [1] = assay: Cell cycle analysis by flow cytometry (PI); settings: 1C 20 μmol/L
Description: (§3) The A2058 and BLM melanoma cells were seeded at a density of 1 × 10^5/dish in a Petri dish. Twenty-four hours after incubation, A2058 cells were treated with chalcone 1C at 10 μmol/L concentration, BLM cells at 20 μmol/L concentration and both melanoma cell lines were treated with DMSO as the negative control at the same concentrations. For flow cytometric analysis of the cell cycle, adherent and floating A2058 and BLM melanoma cells were harvested in three different times (24, 48 and 72 h) after treatment with chalcone 1C and DMSO, washed in cold washing buffer (PBS), fixed in cold 70% ethanol and stored at −20 °C at least overnight. Prior to analysis, cells were washed with PBS, resuspended in staining solution (Triton X-100 final concentration 0.1%, ribonuclease A final concentration 0.5 mg/mL and propidium iodide final concentration 0.025 mg/mL, all Sigma), and incubated for 30 min in the dark at room temperature. Stained melanoma cells were analysed using a BD FACSCalibur^TM Flow Cytometer (Becton Dickinson, San Jose, CA, USA). Three independent analyses were performed.

A2058 melanoma cells [2] = assay: Cell cycle analysis by flow cytometry (PI); settings: A2058, 1C 10 μmol/L
Description: as §3

BLM melanoma cells [3] = assay: Flow cytometric analysis of cytochrome c release; settings: 1C 20 μmol/L, 24, 48 and 72 h
Description: (§4) The A2058 and BLM melanoma cells were seeded 1 × 10^6 in Petri dishes with complete growth medium and cultivated for 24 h. After cell cultivation, the A2058 cells were treated with chalcone 1C at 10 μmol/L concentration, BLM cells at 20 μmol/L concentration and both melanoma cell lines were treated with DMSO as the negative control at the same concentrations for 24, 48 and 72 h. Adherent and floating cells were harvested, pelleted by centrifugation at 1200 rpm for 5 min. Pellets were resuspended in washing buffer (PBS) and divided for a particular analysis. Afterwards, cells were prepared according to assay kit protocols or fixed with cold 4% paraformaldehyde (15 min) and permeabilized with 90% methanol (10 min on ice) with washing steps (PBS) and stained prior to analysis (Table 5) for 15 min in the dark at room temperature. Fluorescence was detected using a BD FACSCalibur^TM Flow Cytometer (Becton Dickinson, San Jose, CA, USA).

A2058 melanoma cells [4] = assay: Flow cytometric analysis of cytochrome c release; settings: A2058, 1C 10 μmol/L, 24, 48 and 72 h
Description: as §4

BLM melanoma cells [5] = assay: Apoptosis detection, Annexin V/PI staining; settings: 1C 20 μmol/L
From the text: (§5) Phosphatidylserine (PS) is an anionic phospholipid located on the cytoplasmic surface of the plasma membrane in cells with intact membranes. The externalization of PS from the inner to outer surface of the lipid bilayer of plasma membrane is a typical marker of apoptosis in the early stages. Annexin V/PI double staining is a method for dividing cells into populations of living (An^−/PI^− Q3), early apoptotic (An^+/PI^− Q4), late apoptotic/necrotic (An^+/PI^+ Q2) and dead (An^−/PI^+ Q1). […] Furthermore, the concomitant decrease of living cells and the increased number of dead cells were also observed in a time-dependent pattern (Table 4, Figure 4).
(§6) To perform apoptosis detection, A2058 and BLM melanoma cells were seeded in Petri dishes at a density of 1 × 10^5/dish and treated with chalcone 1C and DMSO as the negative control at the same concentrations for 24, 48 and 72 h. In the next step, adherent and floating melanoma cells were harvested, centrifuged and pellets were resuspended in washing buffer (PBS). Resuspended melanoma cells were stained with Annexin V-Alexa Fluor® 647 antibody (Thermo Scientific, Rockford, IL, USA) in binding buffer for 20 min in the dark at room temperature. Finally, melanoma cells were washed, stained with 1 μL of propidium iodide (final concentration 25 μg/mL) for 5 min and analysed using a BD FACSCalibur^TM Flow Cytometer (Becton Dickinson, San Jose, CA, USA). Three independent analyses were performed.

A2058 melanoma cells [6] = assay: Apoptosis detection, Annexin V/PI staining; settings: A2058, 1C 10 μmol/L
From the text: as §5, §6

For `COc1cccc(OC)c1C(=O)/C=C/c1c2ccccc2nc2ccccc12` [Compound 1C, (2E)-3-(acridin-9-yl)-1-(2,6-dimethoxyphenyl)prop-2-en-1-one], the IC50 (BLM; Homo sapiens, BLM, 72 h incubation) was 16.51 ± 0.01 µM, the “Selectivity index, BLM (BrdU)” value (BLM; MCF-10A vs BLM, calculated on the basis of BrdU results) was 1.99 and the IC50 (A2058; Homo sapiens, A2058, 72 h incubation) was 8.4 ± 0.05 µM. For the same molecule, the “Selectivity index, A2058 (BrdU)” value (A2058; MCF-10A vs A2058, calculated on the basis of BrdU results) was 3.9, the G1 (BLM melanoma cells [1]; 24 h) was 19.35 ± 1.43 and the G2/M (BLM melanoma cells [1]; 24 h) was 63.25 ± 0.45. It also gave an S (BLM melanoma cells [1]; 24 h) of 9.19 ± 0.28, a subG0 (BLM melanoma cells [1]; 24 h) of 8.22 ± 1.62 and a G1 (BLM melanoma cells [1]; 48 h) of 11.65 ± 0.69. It also gave a G2/M (BLM melanoma cells [1]; 48 h) of 54.95 ± 0.45, an S (BLM melanoma cells [1]; 48 h) of 16.35 ± 0.20 and a subG0 (BLM melanoma cells [1]; 48 h) of 17.05 ± 0.45. It also gave a G1 (BLM melanoma cells [1]; 72 h) of 13.85 ± 1.18, a G2/M (BLM melanoma cells [1]; 72 h) of 29.25 ± 0.04 and an S (BLM melanoma cells [1]; 72 h) of 32.60 ± 2.69. The subG0 (BLM melanoma cells [1]; 72 h) was 24.30 ± 3.84, the G1 (A2058 melanoma cells [2]; 24 h) was 34.67 ± 4.92 and the G2/M (A2058 melanoma cells [2]; 24 h) was 52.23 ± 7.03. The S (A2058 melanoma cells [2]; 24 h) was 11.79 ± 1.51, the subG0 (A2058 melanoma cells [2]; 24 h) was 1.30 ± 1.11 and the G1 (A2058 melanoma cells [2]; 48 h) was 24.60 ± 11.45. For the same molecule, the G2/M (A2058 melanoma cells [2]; 48 h) was 59.73 ± 12.23, the S (A2058 melanoma cells [2]; 48 h) was 8.12 ± 1.15 and the subG0 (A2058 melanoma cells [2]; 48 h) was 7.54 ± 3.73. It also gave a G1 (A2058 melanoma cells [2]; 72 h) of 18.67 ± 8.56, a G2/M (A2058 melanoma cells [2]; 72 h) of 60.37 ± 4.42 and an S (A2058 melanoma cells [2]; 72 h) of 8.85 ± 2.70. For the same molecule, the subG0 (A2058 melanoma cells [2]; 72 h) was 12.12 ± 5.84, the Cytochrome c release (BLM melanoma cells [3]) was “significant release of cytochrome c” and the Cytochrome c release (A2058 melanoma cells [4]) was “significant release of cytochrome c”. For the same molecule, the “Dead An−/PI+” value (BLM melanoma cells [5]; 24 h) was 6.25 ± 0.20, the “Early Apo An+/PI−” value (BLM melanoma cells [5]; 24 h) was 12.96 ± 0.77 and the “Late Apo An+/PI+” value (BLM melanoma cells [5]; 24 h) was 6.90 ± 0.09. For the same molecule, the “Live An−/PI−” value (BLM melanoma cells [5]; 24 h) was 73.90 ± 0.49, the “Dead An−/PI+” value (BLM melanoma cells [5]; 48 h) was 5.81 ± 0.86 and the “Early Apo An+/PI−” value (BLM melanoma cells [5]; 48 h) was 20.25 ± 1.27. For the same molecule, the “Late Apo An+/PI+” value (BLM melanoma cells [5]; 48 h) was 12.40 ± 0.49, the “Live An−/PI−” value (BLM melanoma cells [5]; 48 h) was 61.50 ± 2.61 and the “Dead An−/PI+” value (BLM melanoma cells [5]; 72 h) was 5.90 ± 1.47. The “Early Apo An+/PI−” value (BLM melanoma cells [5]; 72 h) was 25.95 ± 3.80, the “Late Apo An+/PI+” value (BLM melanoma cells [5]; 72 h) was 28.55 ± 3.23 and the “Live An−/PI−” value (BLM melanoma cells [5]; 72 h) was 39.60 ± 0.90. For the same molecule, the “Dead An−/PI+” value (A2058 melanoma cells [6]; 24 h) was 3.41 ± 0.46, the “Early Apo An+/PI−” value (A2058 melanoma cells [6]; 24 h) was 7.53 ± 1.17 and the “Late Apo An+/PI+” value (A2058 melanoma cells [6]; 24 h) was 4.22 ± 0.47. The “Live An−/PI−” value (A2058 melanoma cells [6]; 24 h) was 84.80 ± 0.24, the “Dead An−/PI+” value (A2058 melanoma cells [6]; 48 h) was 5.94 ± 0.52 and the “Early Apo An+/PI−” value (A2058 melanoma cells [6]; 48 h) was 11.52 ± 0.42. For the same molecule, the “Late Apo An+/PI+” value (A2058 melanoma cells [6]; 48 h) was 13.85 ± 2.57, the “Live An−/PI−” value (A2058 melanoma cells [6]; 48 h) was 68.70 ± 1.63 and the “Dead An−/PI+” value (A2058 melanoma cells [6]; 72 h) was 11.65 ± 1.43. For the same molecule, the “Early Apo An+/PI−” value (A2058 melanoma cells [6]; 72 h) was 13.30 ± 1.71, the “Late Apo An+/PI+” value (A2058 melanoma cells [6]; 72 h) was 23.05 ± 4.94 and the “Live An−/PI−” value (A2058 melanoma cells [6]; 72 h) was 52.00 ± 5.23.
